The results in this text go back to patent US20250332173A1, “COMPOUNDS AND METHODS FOR MODULATING NUCLEIC ACID SPLICING” (REMIX THERAPEUTICS INC., priority 2021, published 2025).

For test [1], the system named is Target C. As to the kind of experiment: RT-qPCR splicing assay panel, Target C canonical junction (CJ) mRNA. Particulars: Homo sapiens; Table 5 panel; canonical junction qPCR; compound concentration having 50% response in CJ decrease; read-out: Target C IC50 (decrease in CJ mRNA levels). It counts as cell-based, human. The gist of the method:
(§1)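 K562/A673 cells, 11-pt 3-fold compound titration from 10 uM final, DMSO ≤0.25%, 24 h 37 °C 5% CO2; lyse (DNase I or Igepal/Tris buffer pH 7.4); RT-qPCR for CJ isoform vs housekeeping gene (GAPDH/GUSB/PPIA).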
A general note: Quantitative PCR measures a nucleic acid by following its amplification.

Test [2] deals with SMN2 mRNA. As to the kind of experiment: RT-qPCR splicing assay, SMN2 canonical junction (CJ) mRNA. It counts as cell-based, human. Particulars: Homo sapiens; Table 5 panel; canonical junction qPCR; compound concentration having 50% response in CJ decrease; read-out: SMN2 IC50 (decrease in CJ mRNA levels). A digest of the protocol: as §1

Bounds are passed on as bounds.

A word on the IC50: it is the concentration at which inhibition is half-maximal.

On to `Cc1cn2nc(-c3cc(O)c4c(=O)n(C5CCNCC5)ccc4c3)cc(C)c2n1` [Compound 391, 6-(2,8-dimethylimidazo[1,2-b]pyridazin-6-yl)-8-hydroxy-2-(piperidin-4-yl)isoquinolin-1(2H)-one], for which the IC50 in test [1] and in test [2] was less than 100 nM in each case.

With `CC(=O)c1cc(-c2cc(F)c3c(=O)n(C4CCNCC4)ccc3c2)cn2cc(C)nc12` [Compound 393, 6-{8-acetyl-2-methylimidazo[1,2-a]pyridin-6-yl}-8-fluoro-2-(piperidin-4-yl)isoquinolin-1-one 2,2,2-trifluoroacetate], the results for the IC50 in test [1] and in test [2] were 1000 to 10000 nM and less than 100 nM, respectively.

As for `Cn1cc2cc(-c3cc(F)c4c(=O)n(C5CCNCC5)ccc4c3)cc(C#N)c2n1` [Compound 394, 5-(8-fluoro-1-oxo-2-(piperidin-4-yl)-1,2-dihydroisoquinolin-6-yl)-2-methyl-2H-indazole-7-carbonitrile], the IC50 in test [1] was 100 to 1000 nM; in test [2] it was less than 100 nM.

Regarding `COc1cc(-c2cc(C)c3nc(C)cn3n2)cc2ccn(C3CCNCC3)c(=O)c12` [Compound 399, 6-{2,8-dimethylimidazo[1,2-b]pyridazin-6-yl}-8-methoxy-2-(piperidin-4-yl)isoquinolin-1-one], the IC50 in test [1] was 1000 to 10000 nM; in test [2], less than 100 nM.

Take `Cc1cn2nc(-c3cc(F)c4c(=O)n(C5CCN(C)CC5)ccc4c3)cc(C)c2n1` [Compound 400, 6-(2,8-dimethylimidazo[1,2-b]pyridazin-6-yl)-8-fluoro-2-(1-methylpiperidin-4-yl)isoquinolin-1(2H)-one]: the IC50 is 100 to 1000 nM in test [1] and less than 100 nM in test [2].

In the case of `CCN1CCC(n2ccc3cc(-c4cc(C)c5nc(C)cn5n4)ccc3c2=O)CC1` [Compound 402, 6-{2,8-dimethylimidazo[1,2-b]pyridazin-6-yl}-2-(1-ethylpiperidin-4-yl)isoquinolin-1-one], the IC50 was 100 to 1000 nM in test [1] and less than 100 nM in test [2].

For `Cc1cn2cc(-c3ccc4c(=O)n([C@H]5CCCNC5)ccc4c3)cc(F)c2n1` [Compound 404, 6-{8-fluoro-2-methylimidazo[1,2-a]pyridin-6-yl}-2-[(3S)-piperidin-3-yl]isoquinolin-1-one], the values for the 50% inhibitory concentration (IC50) in test [1] and in test [2] were greater than 10000 nM and less than 100 nM, respectively.

On to `Cc1cn2cc(-c3cc(S(C)(=O)=O)c4c(=O)n(C5CCNCC5)ccc4c3)cc(F)c2n1` [Compound 409, 6-(8-fluoro-2-methylimidazo[1,2-a]pyridin-6-yl)-8-(methylsulfonyl)-2-(piperidin-4-yl)isoquinolin-1(2H)-one], for which the IC50 in test [1] and in test [2] was greater than 10000 nM throughout.

Turning to `Cn1cc2cc(-c3cc(F)c4c(=O)n(C5CCNC6(CC6)C5)ccc4c3)cc(F)c2n1` (stereo not shown) [Compound 412], the IC50 in test [1] and in test [2] was less than 100 nM in each case.

For the molecule `Cc1cn2cc(-c3cc(F)c4c(=O)n(C5CCNC6(CC6)C5)ccc4c3)cc(Cl)c2n1` (stereo not shown) [Compound 413, 2-{4-azaspiro[2.5]octan-7-yl}-6-{8-chloro-2-methylimidazo[1,2-a]pyridin-6-yl}-8-fluoroisoquinolin-1-one], the IC50 in test [1] was 100 to 1000 nM; in test [2], less than 100 nM.

On to `Cn1cc2cc(-c3cc(F)c4c(=O)n(C5CCNC6(CC6)C5)ccc4c3)c(O)cc2n1` (stereo not shown) [Compound 414, 2-{4-azaspiro[2.5]octan-7-yl}-8-fluoro-6-(6-hydroxy-2-methylindazol-5-yl)isoquinolin-1-one], for which the IC50 was greater than 10000 nM in test [1] and 100 to 1000 nM in test [2].

For `Cc1cc(-c2cc(F)c3c(=O)n(C4CCNC5(CC5)C4)ccc3c2)cc2cn(C)nc12` (stereo not shown) [Compound 415, 2-{4-azaspiro[2.5]octan-7-yl}-6-(2,7-dimethylindazol-5-yl)-8-fluoroisoquinolin-1-one], the IC50 is 100 to 1000 nM in test [1] and less than 100 nM in test [2].

Turning to `Cc1cn2cc(-c3cc(F)c4c(=O)n(C5CCNC6(CC6)C5)ccc4c3)cc(C)c2n1` (stereo not shown) [Compound 416, 2-{4-azaspiro[2.5]octan-7-yl}-6-{2,8-dimethylimidazo[1,2-a]pyridin-6-yl}-8-fluoroisoquinolin-1-one], the IC50 in test [1] is 100 to 1000 nM; in test [2], less than 100 nM.

As for `Cc1nc2c(F)cc(-c3cc(F)c4c(=O)n(C5CCNC6(CC6)C5)ccc4c3)cc2o1` (stereo not shown) [Compound 417, 2-{4-azaspiro[2.5]octan-7-yl}-8-fluoro-6-(4-fluoro-2-methyl-1,3-benzoxazol-6-yl)isoquinolin-1-one], the IC50 in test [1] was 100 to 1000 nM; in test [2], less than 100 nM.

Consider `Cc1nc2c(C)cc(-c3cc(F)c4c(=O)n(C5CCNC6(CC6)C5)ccc4c3)cc2o1` (stereo not shown) [Compound 418, 2-{4-azaspiro[2.5]octan-7-yl}-6-(2,4-dimethyl-1,3-benzoxazol-6-yl)-8-fluoroisoquinolin-1-one], for which the results for the IC50 in test [1] and in test [2] were 100 to 1000 nM and less than 100 nM, respectively.

Take `Cc1c(O)c(-c2cc(F)c3c(=O)n(C4CCNC5(CC5)C4)ccc3c2)cc2cn(C)nc12` (stereo not shown) [Compound 419, 2-{4-azaspiro[2.5]octan-7-yl}-8-fluoro-6-(6-hydroxy-2,7-dimethylindazol-5-yl)isoquinolin-1-one]: the IC50 is greater than 10000 nM in test [1] and 100 to 1000 nM in test [2].

With `Cn1cc2cc(-c3cc(F)c4c(=O)n(C5CCNC6(CC6)C5)ccc4c3)c(O)c(F)c2n1` (stereo not shown) [Compound 420, 2-{4-azaspiro[2.5]octan-7-yl}-8-fluoro-6-(7-fluoro-6-hydroxy-2-methylindazol-5-yl)isoquinolin-1-one], the results for the IC50 in test [1] and in test [2] were 1000 to 10000 nM and less than 100 nM, respectively.

For `Cc1cn2cc(-c3cc(F)c4c(=O)n(C5CCNC6(CC6)C5)ccc4c3)c(O)c(C)c2n1` (stereo not shown) [Compound 421, 2-{4-azaspiro[2.5]octan-7-yl}-8-fluoro-6-{7-hydroxy-2,8-dimethylimidazo[1,2-a]pyridin-6-yl}isoquinolin-1-one], the IC50 in test [1] and in test [2] was greater than 10000 nM throughout.

With `Cc1cn2nc(-c3cc(C)c4c(=O)n(C5CCNC6(CC6)C5)ncc4c3)cc(C)c2n1` (stereo not shown) [Compound 423, 6-(2,8-dimethylimidazo[1,2-b]pyridazin-6-yl)-8-methyl-2-(4-azaspiro[2.5]octan-7-yl)phthalazin-1(2H)-one], the IC50 in test [1] is 100 to 1000 nM; in test [2], less than 100 nM.

Consider `Cc1cn2cc(-c3cc(F)c4c(=O)n(C5CCNC6(CC6)C5)ccc4c3)ncc2n1` (stereo not shown) [Compound 428, 8-fluoro-6-(2-methylimidazo[1,2-a]pyrazin-6-yl)-2-(4-azaspiro[2.5]octan-7-yl)isoquinolin-1(2H)-one], for which the values for the IC50 in test [1] and in test [2] were 1000 to 10000 nM and less than 100 nM, respectively.

For `Cc1cc(-c2cc(F)c3c(=O)n(C4CCNC5(CC5)C4)ccc3c2)cc2c1nc(C)n2C` (stereo not shown) [Compound 429], the IC50 in test [1] and in test [2] was greater than 10000 nM in each case.

Consider `Cc1nc2c(F)cc(-c3cc(F)c4c(=O)n(C5CCNC6(CC6)C5)ccc4c3)cc2n1C` (stereo not shown) [Compound 430, 8-fluoro-6-(4-fluoro-1,2-dimethyl-1H-benzo[d]imidazol-6-yl)-2-(4-azaspiro[2.5]octan-7-yl)isoquinolin-1(2H)-one], for which the 50% inhibitory concentration (IC50) in test [1] was greater than 10000 nM; in test [2], 100 to 1000 nM.

Take `Cc1cc(-c2cc(F)c3c(=O)n(C4CCNC5(CC5)C4)ccc3c2)nc2cn(C)nc12` (stereo not shown) [Compound 431]: the IC50 was 100 to 1000 nM in test [1] and less than 100 nM in test [2].

Turning to `Cc1cn2nc(-c3cc(O)c4c(=O)n(C5CCNC5)ccc4c3)cc(C)c2n1` (stereo not shown) [Compound 432, 6-{2,8-dimethylimidazo[1,2-b]pyridazin-6-yl}-8-hydroxy-2-(pyrrolidin-3-yl)isoquinolin-1-one], the IC50 is 1000 to 10000 nM in test [1] and less than 100 nM in test [2].

As to `Cc1cn2cc(-c3cc(O)c4c(=O)n(C5CCNC5)ccc4c3)cc(C#N)c2n1` (stereo not shown) [Compound 433, 6-(8-hydroxy-1-oxo-2-(pyrrolidin-3-yl)-1,2-dihydroisoquinolin-6-yl)-2-methylimidazo[1,2-a]pyridine-8-carbonitrile], the IC50 in test [1] is 100 to 1000 nM; in test [2], less than 100 nM.

In the case of `Cc1cn2cc(-c3cc(F)c4c(=O)n(C5CCNC5)ccc4c3)cc(C#N)c2n1` (stereo not shown) [Compound 434, 6-[8-fluoro-1-oxo-2-(pyrrolidin-3-yl)isoquinolin-6-yl]-2-methylimidazo[1,2-a]pyridine-8-carbonitrile], the IC50 in test [1] was greater than 10000 nM; in test [2], less than 100 nM.

For `Cc1cn2cc(-c3ccc4c(=O)n(C5CCNCC5)cc(C)c4c3)cc(F)c2n1` [Compound 440, 6-{8-fluoro-2-methylimidazo[1,2-a]pyridin-6-yl}-4-methyl-2-(piperidin-4-yl)isoquinolin-1-one], the figures for the IC50 in test [1] and in test [2] were 100 to 1000 nM and less than 100 nM, respectively.

For the molecule `Cc1cn2cc(-c3ccc4c(=O)n(C5CCNC5)cc(C)c4c3)cc(F)c2n1` (stereo not shown) [Compound 441, 6-{8-fluoro-2-methylimidazo[1,2-a]pyridin-6-yl}-4-methyl-2-(pyrrolidin-3-yl)isoquinolin-1-one], the figures for the IC50 in test [1] and in test [2] were greater than 10000 nM and 100 to 1000 nM, respectively.

On to `Cc1cn2cc(-c3ccc4c(=O)n(C5CCNC5)cc(C)c4c3)cc(C#N)c2n1` (stereo not shown) [Compound 442, 2-methyl-6-[4-methyl-1-oxo-2-(pyrrolidin-3-yl)isoquinolin-6-yl]imidazo[1,2-a]pyridine-8-carbonitrile], for which the IC50 is greater than 10000 nM in test [1] and 1000 to 10000 nM in test [2].

On to `Cc1cn2nc(-c3ccc4c(=O)n([C@H]5CCNC6(CC6)C5)ccc4c3)cc(C)c2n1` [Compound 445], for which the IC50 in test [1] and in test [2] was less than 100 nM throughout.

Turning to `Cc1cn2nc(-c3cc(F)c4c(=O)n([C@@H]5CCNC6(CC6)C5)ncc4c3)cc(C)c2n1` [Compound 446], the IC50 in test [1] and in test [2] was less than 100 nM throughout.

Take `Cc1cn2nc(-c3cc(F)c4c(=O)n([C@H]5CCNC6(CC6)C5)ncc4c3)cc(C)c2n1` [Compound 447]: the IC50 in test [1] and in test [2] was less than 100 nM in each case.
